EP3800188A1, “SUBSTITUTED PYRAZOLOPYRIMIDINES AS IRAK4 INHIBITORS” (Bayer AG, priority 2019, dated 2021)
pIC50: −log10 of the molar value.

Legend:
[1] = target: T1, human IRAK4 (Homo sapiens, UniProt Q9NWZ3); experiment: Human IRAK4 kinase activity inhibition assay (IRAK4 TR-FRET assay); format: biochemical; details: 1 mM ATP, GST-human IRAK4, average or median values
T1 construct: GST (N); made in house; host or cells: baculovirus-infected Hi5 (BTI-TN-5B1-4) insect cells
T1 sequence (Q9NWZ3 1-460): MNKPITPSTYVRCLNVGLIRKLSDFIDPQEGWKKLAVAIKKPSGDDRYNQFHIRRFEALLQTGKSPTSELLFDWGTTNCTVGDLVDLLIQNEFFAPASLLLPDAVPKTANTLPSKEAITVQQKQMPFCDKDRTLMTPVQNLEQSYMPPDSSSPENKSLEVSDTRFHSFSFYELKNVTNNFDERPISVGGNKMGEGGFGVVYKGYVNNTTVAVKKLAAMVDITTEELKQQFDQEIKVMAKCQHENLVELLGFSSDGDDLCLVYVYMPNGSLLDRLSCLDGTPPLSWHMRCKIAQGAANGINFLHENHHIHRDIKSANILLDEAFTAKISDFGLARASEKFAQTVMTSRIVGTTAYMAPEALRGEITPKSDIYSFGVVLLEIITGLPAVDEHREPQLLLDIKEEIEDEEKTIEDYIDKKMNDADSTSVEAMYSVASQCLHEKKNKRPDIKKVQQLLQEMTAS
How it was run: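 Signal was the 665/620 nm emission ratio from a europium anti-mouse-IgG, anti-phosphoserine antibody and streptavidin-XL665 complex formed over 1 h at 22°C. It was scaled between no-enzyme (100%) and no-compound (0%) wells. Beforehand, compounds (20 µM down to 0.073 nM, 11 points) sat 15 min with roughly 0.2 nM insect-cell-expressed GST-human IRAK4 before phosphorylation of a biotinylated peptide substrate.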

[2] = Metabolic stability in human liver microsomes; details: 1 µM compound; for CLblood, human microsomes: hepatic in vivo blood clearance calculated with well stirred liver model, '(stable)' given beside < 0.01; for Fmax, human microsomes: maximal oral bioavailability calculated with well stirred liver model, 0.5 mg/mL protein, '(stable)' given beside 100
Procedure: The in vitro metabolic stability of test compounds was determined by incubating them at 1 µM in a suspension liver microsomes in 100 mM phosphate buffer, pH7.4 (NaH2PO4 x H2O + Na2HPO4 x 2H2O) and at a protein concentration of 0.5 mg/mL at 37° C. The microsomes were activated by adding a co-factor mix containing 8 mM Glukose-6-Phosphat, 4 mM MgCl2, 0.5 mM NADP and 1 IU/mL G-6-P-Dehydrogenase in phosphate buffer, pH 7.4. The metabolic assay was started shortly afterwards by adding the test compound to the incubation at a final volume of 1 mL. Organic solvent in the incubations was limited to ≤0.01 % dimethylsulfoxide (DMSO) and ≤1% acetonitril. During incubation, the microsomal suspensions were continuously shaken at 580 rpm, and aliquots were taken at 2, 8, 16, 30, 45 and 60 min, to which equal volumes of cold methanol were immediately added. Samples were frozen at -20° C over night, subsequently centrifuged for 15 min at 3000 rpm and the supernatant was analyzed with an Agilent 1200 HPLC-system with LCMS/MS detection.
The half-life of a test compound was determined from the concentration-time plot. From the half-life the intrinsic clearances were calculated. Together with the additional parameters liver blood flow, specific liver weight and microsomal protein content the hepatic in vivo blood clearance (CL) and the maximal oral bioavailability (Fmax) were calculated using the "well stirred" liver model. The following parameter values were used: Liver blood flow - 1.32 L/h/kg (human), 2.1 L/h/kg (dog); specific liver weight - 21 g/kg (human), 39 g/kg (dog); microsomal protein content - 40 mg/g.

| SMILES | pIC50 [1] | CLblood, human microsomes [2] | Fmax, human microsomes [2] |
| --- | --- | --- | --- |
| C[C@H]1CN(c2nc(N[C@H]3C[C@H](S(C)(=O)=O)C3)nc3c2cnn3-c2cccc(C(F)F)c2)C[C@@H]1O (relative stereo) [II-17-1, rel-(3R,4S)-1-(1-[3-(difluoromethyl)phenyl]-6-{[trans-3-(methylsulfonyl)cyclobutyl]-amino}-1H-pyrazolo[3,4-d]pyrimidin-4-yl)-4-methylpyrrolidin-3-ol] | 8.58 | 0.10 L/h/kg | 93% |
| O[C@@H]1CN(c2nc(N[C@H]3C[C@@H](O)C3)nc3c2cnn3-c2cccc(C(F)(F)F)c2)C[C@H]1F [Example I-89, (3R,4R)-4-fluoro-1-(6-{[(1s,3S)-3-hydroxycyclobutyl]amino}-1-[3-(trifluoromethyl)-phenyl]-1H-pyrazolo[3,4-d]pyrimidin-4-yl)pyrrolidin-3-ol] | 8.33 | 0.37 L/h/kg | 72% |
| CC(C)(O)CC1CN(c2nc(NC3CN(S(C)(=O)=O)C3)nc3c2cnn3-c2cccc(C(F)(F)F)c2)C1 [Example I-68, 2-methyl-1-[1-(6-{[1-(methylsulfonyl)azetidin-3-yl]amino}-1-[3-(trifluoromethyl)phenyl]-1H-pyrazolo[3,4-d]pyrimidin-4-yl)azetidin-3-yl]propan-2-ol] | 7.64 | 0.02 L/h/kg | 99% |
| O[C@@H]1CN(c2nc(N[C@H]3C[C@H](O)C3)nc3c2cnn3-c2cccc(C(F)(F)F)c2)C[C@H]1F [Example I-88, (3R,4R)-4-fluoro-1-(6-{[(1r,3R)-3-hydroxycyclobutyl]amino}-1-[3-(trifluoromethyl)-phenyl]-1H-pyrazolo[3,4-d]pyrimidin-4-yl)pyrrolidin-3-ol] | 8.40 | 0.57 L/h/kg | 57% |
| CCC1(O)CN(c2nc(N[C@@H]3CNC(=O)C3)nc3c2cnn3-c2cccc(C(F)(F)F)c2)C1 [Example I-3-1, (4S)-4-({4-(3-ethyl-3-hydroxyazetidin-1-yl)-1-[3-(trifluoromethyl)phenyl]-1H-pyrazolo[3,4-d]pyrimidin-6-yl}amino)pyrrolidin-2-one] | 8.01 | 0.46 L/h/kg | 65% |
| NC1(C2CCN(c3nc(NC4CCS(=O)(=O)CC4)nc4c3cnn4-c3cccc(C(F)(F)F)c3)CC2)CC1 [Example I-62, 4-[4-(1-aminocyclopropyl)piperidin-1-yl]-N-(1,1-dioxidotetrahydro-2H-thiopyran-4-yl)-1-[3-(trifluoromethyl)phenyl]-1H-pyrazolo[3,4-d]pyrimidin-6-amine] | 8.59 | < 0.01 (stable) L/h/kg | 100 (stable) % |
| CC(C)(O)C1CCN(c2nc(N[C@@H]3CCOC3)nc3c2cnn3-c2cccc(C(F)(F)F)c2)CC1 [Example I-16-2, 2-(1-{6-[(3R)-tetrahydrofuran-3-ylamino]-1-[3-(trifluoromethyl)phenyl]-1H-pyrazolo[3,4-d]pyrimidin-4-yl}piperidin-4-yl)propan-2-ol] | 7.79 | 0.92 L/h/kg | 30% |
| CC1(O)CCN(C2CN(c3nc(N[C@H]4C[C@H](O)C4)nc4c3cnn4-c3cccc(C(F)(F)F)c3)C2)CC1 [Example I-79, 1-(1-{6-[(trans-3-hydroxycyclobutyl)amino]-1-[3-(trifluoromethyl)phenyl]-1H-pyrazolo-[3,4-d]pyrimidin-4-yl}azetidin-3-yl)-4-methylpiperidin-4-ol] | 8.11 | 0.41 L/h/kg | 69% |
| O=S1(=O)CCC(Nc2nc(N3CC(CN4CCOCC4)C3)c3cnn(-c4cccc(C(F)(F)F)c4)c3n2)CC1 [Example I-60, N-(1,1-dioxidotetrahydro-2H-thiopyran-4-yl)-4-[3-(morpholin-4-ylmethyl)azetidin-1-yl]-1-[3-(trifluoromethyl)phenyl]-1H-pyrazolo[3,4-d]pyrimidin-6-amine] | 7.47 | 0.37 L/h/kg | 72% |
| CC(C)(O)C1CCN(c2nc(N[C@H]3CN4CCC3CC4)nc3c2cnn3-c2cccc(C(F)(F)F)c2)CC1 [Example I-64-1, 2-(1-{6-[(3R)-1-azabicyclo[2.2.2]octan-3-ylamino]-1-[3-(trifluoromethyl)phenyl]-1H-pyrazolo[3,4-d]pyrimidin-4-yl}piperidin-4-yl)propan-2-ol] | 8.07 | 0.32 L/h/kg | 76% |
| CCC1(O)CN(c2nc(N[C@H]3C[C@H](S(C)(=O)=O)C3)nc3c2cnn3-c2cccc(C(F)(F)F)c2)C1 [Example I-92, 3-ethyl-1-(6-{[trans-3-(methylsulfonyl)cyclobutyl]amino}-1-[3-(trifluoromethyl)phenyl]-1H-pyrazolo[3,4-d]pyrimidin-4-yl)azetidin-3-ol] | 8.25 | 0.36 L/h/kg | 73% |
| O=C1C[C@H](Nc2nc(N3CC(CC(=O)N4CCOCC4)C3)c3cnn(-c4cccc(C(F)(F)F)c4)c3n2)CN1 [Example I-51, (4S)-4-[(4-{3-[2-(morpholin-4-yl)-2-oxoethyl]azetidin-1-yl}-1-[3-(trifluoromethyl)phenyl]-1H-pyrazolo[3,4-d]pyrimidin-6-yl)amino]pyrrolidin-2-one] | 8.60 | 0.25 L/h/kg | 81% |

Other lines, results leading:

| pIC50 [1] | CLblood, human microsomes [2] | Fmax, human microsomes [2] | SMILES |
| --- | --- | --- | --- |
| 8.32 | 0.55 L/h/kg | 58% | CC(C)(O)CC1CN(c2nc(N[C@H]3C[C@H](S(C)(=O)=O)C3)nc3c2cnn3-c2cccc(OC(F)F)c2)C1 [IV-4, 1-[1-(1-[3-(difluoromethoxy)phenyl]-6-{[trans-3-(methylsulfonyl)cyclobutyl]amino}-1H-pyrazolo[3,4-d]pyrimidin-4-yl)azetidin-3-yl]-2-methylpropan-2-ol] |
| 8.46 | 0.07 L/h/kg | 95% | CS(=O)(=O)[C@H]1C[C@H](Nc2nc(N3CC[C@@H](O)C3)c3cnn(-c4cccc(C(F)F)c4)c3n2)C1 [II-34, (3R)-1-(1-[3-(difluoromethyl)phenyl]-6-{[(1r,3R)-3-(methylsulfonyl)cyclobutyl]amino}-1H-pyrazolo[3,4-d]pyrimidin-4-yl)pyrrolidin-3-ol] |
| 8.79 | 0.23 L/h/kg | 82% | CC(C)(O)CC1CN(c2nc(N[C@H]3C[C@H](S(C)(=O)=O)C3)nc3c2cnn3-c2cccc(C(F)F)c2)C1 [II-19, 1-[1-(1-[3-(difluoromethyl)phenyl]-6-{[trans-3-(methylsulfonyl)cyclobutyl]amino}-1H-pyrazolo[3,4-d]pyrimidin-4-yl)azetidin-3-yl]-2-methylpropan-2-ol] |
| 8.57 | 0.25 L/h/kg | 81% | CC(C)(O)C1CCN(c2nc(N[C@H]3C[C@H](S(C)(=O)=O)C3)nc3c2cnn3-c2cccc(C(F)F)c2)CC1 [II-11, 2-[1-(1-[3-(difluoromethyl)phenyl]-6-{[trans-3-(methylsulfonyl)cyclobutyl]amino}-1H-pyrazolo[3,4-d]pyrimidin-4-yl)piperidin-4-yl]propan-2-ol] |
